# In BindingDB's records for doi:10.1124/jpet.102.47407 (University of Tennessee, 2003):
# Several values for one entry are separate records, joined by “and”; a condition that tells them apart may be missing. Identical values can stand only once.
# Biological target: T1, cAMP-specific 3',5'-cyclic phosphodiesterase 4B (Rattus norvegicus, UniProt P14646)
# T1 sequence (P14646 whole entry): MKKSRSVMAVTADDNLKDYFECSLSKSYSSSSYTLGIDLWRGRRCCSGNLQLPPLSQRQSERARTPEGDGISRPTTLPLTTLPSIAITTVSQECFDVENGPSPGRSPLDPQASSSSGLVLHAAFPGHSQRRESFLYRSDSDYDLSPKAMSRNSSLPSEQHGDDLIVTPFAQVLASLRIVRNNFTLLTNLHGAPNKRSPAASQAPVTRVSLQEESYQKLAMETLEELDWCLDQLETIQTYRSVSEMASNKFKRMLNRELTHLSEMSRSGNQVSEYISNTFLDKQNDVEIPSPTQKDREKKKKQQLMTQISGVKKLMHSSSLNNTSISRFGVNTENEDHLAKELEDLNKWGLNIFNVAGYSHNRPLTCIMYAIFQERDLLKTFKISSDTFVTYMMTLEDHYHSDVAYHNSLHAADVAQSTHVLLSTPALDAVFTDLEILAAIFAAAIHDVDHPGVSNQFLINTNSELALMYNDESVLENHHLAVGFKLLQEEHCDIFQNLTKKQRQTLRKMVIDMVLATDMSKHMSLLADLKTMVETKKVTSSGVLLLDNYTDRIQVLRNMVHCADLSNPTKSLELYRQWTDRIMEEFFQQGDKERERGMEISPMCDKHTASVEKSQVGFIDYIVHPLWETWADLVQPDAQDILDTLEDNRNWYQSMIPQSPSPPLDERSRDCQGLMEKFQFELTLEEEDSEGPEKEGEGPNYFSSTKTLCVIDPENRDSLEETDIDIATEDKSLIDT
row,Structure (SMILES),Ki
1,COc1ccc(Cc2nccc3cc(OC)c(OC)cc23)cc1OC,> 10 µM and 8.82 µM
2,"CC(C)Cn1c(=O)n(C)c(=O)c2[nH]cnc21 [1-methyl-3-(2-methylpropyl)-2,3,6,7-tetrahydro-1H-purine-2,6-dione]",8.4 µM and 3.09 µM
3,COc1cc2c(cc1OC)-c1c/c(=N\c3c(C)cc(C)cc3C)n(C)c(=O)n1CC2 [CAS_5537],> 10 µM and 3.15 µM
4,COc1ccc(C(Cc2ccncc2)c2ccccc2)cc1OC1CCCC1 (configuration not stated) [CDP 840],0.9 µM and 1.25 µM
5,O=C(Nc1c(Cl)cncc1Cl)c1ccc(OC(F)F)c(OCC2CC2)c1 [DAXAS],0.003 µM and 0.0024 µM
6,Cc1[nH]c(=O)c(C#N)cc1-c1ccncc1 [Milrinone],> 10 µM
7,CCOC(=O)C1=CC2(CC)CCCN3CCc4c(n1c1ccccc41)C32 (configuration not stated) [NSC_443955],1 µM
